Common to all, as to assay type: binding
Assay [1] deals with human monoclonal antibody CRJA.
Assay [2] concerns human monoclonal antibody CR57.
The test system of assay [3] is human monoclonal antibody CRJB.
Assay [4] deals with human monoclonal antibody CR57. The source holds these as a separate data set.
The test system of assay [5] is human monoclonal antibody CRJB. The source holds these as a separate data set.
For assay [6], the system named is human monoclonal antibody CRJA. The source holds these as a separate data set.

Regarding PWSPIDIHHLSCPNN, the “Binding of CRJA (10 μg/ml) to looped/cyclic peptide (PEPSCAN-ELISA signal)” value in assay [1] is recorded as 91. In assay [2], the “Binding of CR57 (10 μg/ml) to looped/cyclic peptide (PEPSCAN-ELISA signal)” value is reported as 93. Also, in assay [3], the “Binding of CRJB (10 μg/ml) to looped/cyclic peptide (PEPSCAN-ELISA signal)” value worked out at 75. The “Binding of CR57 to linear peptide (PEPSCAN-ELISA signal)” value (“Binding of CR57 to linear peptide” for short) in assay [4] turned out to be 62. Also, the “Binding of CRJB to linear peptide (PEPSCAN-ELISA signal)” value (“Binding of CRJB to linear peptide” below) in assay [5] was found to be 104. The “Binding of CRJA to linear peptide (PEPSCAN-ELISA signal)” value (shortened to “Binding of CRJA to linear peptide”) in assay [6] came to 76.
As to SETCGFVDERGLYKS, the “Binding of CRJA (10 μg/ml) to looped/cyclic peptide (PEPSCAN-ELISA)” value in assay [1] is listed as 56. Also, the “Binding of CR57 (10 μg/ml) to looped/cyclic peptide (PEPSCAN-ELISA)” value in assay [2] is 58. Moreover, the “Binding of CRJB (10 μg/ml) to looped/cyclic peptide (PEPSCAN-ELISA)” value in assay [3] amounted to 78. Also, the “Binding of CR57 to linear peptide” value in assay [4] amounted to 33. Further, in assay [5], the “Binding of CRJB to linear peptide” value was 116. In assay [6], the “Binding of CRJA to linear peptide” value is 71.
Regarding PNNLVVEDEGCTNLS, the “Binding of CRJA (10 μg/ml) to looped/cyclic peptide (PEPSCAN-ELISA signal)” value in assay [1] was 96. For the same sequence, the “Binding of CR57 (10 μg/ml) to looped/cyclic peptide (PEPSCAN-ELISA signal)” value in assay [2] is on record as 100. Besides, the “Binding of CRJB (10 μg/ml) to looped/cyclic peptide (PEPSCAN-ELISA signal)” value in assay [3] turned out to be 60. In addition, the “Binding of CR57 to linear peptide” value in assay [4] was 78. Also, in assay [5], the “Binding of CRJB to linear peptide” value is 107. Further, the “Binding of CRJA to linear peptide” value in assay [6] was 86.
In the case of FPSGKCSGVAVSSTY, the “Binding of CRJA (10 μg/ml) to looped/cyclic peptide (PEPSCAN-ELISA signal)” value in assay [1] came to 80. Further, in assay [2], the “Binding of CR57 (10 μg/ml) to looped/cyclic peptide (PEPSCAN-ELISA signal)” value is listed as 90. Further, the “Binding of CRJB (10 μg/ml) to looped/cyclic peptide (PEPSCAN-ELISA signal)” value in assay [3] is listed as 74. Besides, the “Binding of CR57 to linear peptide” value in assay [4] is recorded as 64. The “Binding of CRJB to linear peptide” value in assay [5] was determined as 134. Besides, the “Binding of CRJA to linear peptide” value in assay [6] stood at 93.
In the case of VSSTYCSTNHDYTIW, the “Binding of CRJA (10 μg/ml) to looped/cyclic peptide (PEPSCAN-ELISA signal)” value in assay [1] was 88. Also, the “Binding of CR57 (10 μg/ml) to looped/cyclic peptide (PEPSCAN-ELISA signal)” value in assay [2] came to 89. Further, the “Binding of CRJB (10 μg/ml) to looped/cyclic peptide (PEPSCAN-ELISA signal)” value in assay [3] was found to be 61. Besides, the “Binding of CR57 to linear peptide” value in assay [4] worked out at 78. For the same sequence, the “Binding of CRJB to linear peptide” value in assay [5] was determined as 107. For the same sequence, the “Binding of CRJA to linear peptide” value in assay [6] was found to be 80.
In the case of SLHSRVFPSGKCSGV, the “Binding of CRJA (10 μg/ml) to looped/cyclic peptide (PEPSCAN-ELISA signal)” value in assay [1] worked out at 97. Moreover, in assay [2], the “Binding of CR57 (10 μg/ml) to looped/cyclic peptide (PEPSCAN-ELISA signal)” value turned out to be 115. For the same sequence, in assay [3], the “Binding of CRJB (10 μg/ml) to looped/cyclic peptide (PEPSCAN-ELISA signal)” value is recorded as 86. Further, the “Binding of CR57 to linear peptide” value in assay [4] is listed as 69. The “Binding of CRJB to linear peptide” value in assay [5] was determined as 111. The “Binding of CRJA to linear peptide” value in assay [6] is 96.
On to CLRVGGRCHPHVNGV, for which the “Binding of CRJA (10 μg/ml) to looped/cyclic peptide (PEPSCAN-ELISA)” value in assay [1] is given as 111. Besides, the “Binding of CR57 (10 μg/ml) to looped/cyclic peptide (PEPSCAN-ELISA)” value in assay [2] is 101. Moreover, the “Binding of CRJB (10 μg/ml) to looped/cyclic peptide (PEPSCAN-ELISA)” value in assay [3] amounted to 104. For the same sequence, in assay [4], the “Binding of CR57 to linear peptide” value is given as 102. In assay [5], the “Binding of CRJB to linear peptide” value is 132. In assay [6], the “Binding of CRJA to linear peptide” value was found to be 103.
ISPSVADLDPYDRSL: in assay [1], the “Binding of CRJA (10 μg/ml) to looped/cyclic peptide (PEPSCAN-ELISA signal)” value turned out to be 46. In addition, in assay [2], the “Binding of CR57 (10 μg/ml) to looped/cyclic peptide (PEPSCAN-ELISA signal)” value was determined as 66. In assay [3], the “Binding of CRJB (10 μg/ml) to looped/cyclic peptide (PEPSCAN-ELISA signal)” value came out at 64. Besides, in assay [4], the “Binding of CR57 to linear peptide” value worked out at 50. Also, the “Binding of CRJB to linear peptide” value in assay [5] was 119. The “Binding of CRJA to linear peptide” value in assay [6] stood at 56.
Turning to RLSHLRKLVPGFGKA, the “Binding of CRJA (10 μg/ml) to looped/cyclic peptide (PEPSCAN-ELISA)” value in assay [1] worked out at 106. In assay [2], the “Binding of CR57 (10 μg/ml) to looped/cyclic peptide (PEPSCAN-ELISA)” value is recorded as 111. Moreover, the “Binding of CRJB (10 μg/ml) to looped/cyclic peptide (PEPSCAN-ELISA)” value in assay [3] was 111. Moreover, the “Binding of CR57 to linear peptide” value in assay [4] was found to be 93. Besides, in assay [5], the “Binding of CRJB to linear peptide” value came out at 123. The “Binding of CRJA to linear peptide” value in assay [6] turned out to be 93.
Take PHVNGVFFNGIILGP: the “Binding of CRJA (10 μg/ml) to looped/cyclic peptide (PEPSCAN-ELISA)” value in assay [1] is reported as 107. Further, the “Binding of CR57 (10 μg/ml) to looped/cyclic peptide (PEPSCAN-ELISA)” value in assay [2] is on record as 112. In assay [3], the “Binding of CRJB (10 μg/ml) to looped/cyclic peptide (PEPSCAN-ELISA)” value is 134. For the same sequence, the “Binding of CR57 to linear peptide” value in assay [4] is 93. The “Binding of CRJB to linear peptide” value in assay [5] came out at 173. The “Binding of CRJA to linear peptide” value in assay [6] was found to be 117.
On to ESSVIPLVHPLADPS, for which the “Binding of CRJA (10 μg/ml) to looped/cyclic peptide (PEPSCAN-ELISA)” value in assay [1] was 91. For the same sequence, the “Binding of CR57 (10 μg/ml) to looped/cyclic peptide (PEPSCAN-ELISA)” value in assay [2] is reported as 108. Further, the “Binding of CRJB (10 μg/ml) to looped/cyclic peptide (PEPSCAN-ELISA)” value in assay [3] is 92. For the same sequence, the “Binding of CR57 to linear peptide” value in assay [4] is reported as 104. For the same sequence, the “Binding of CRJB to linear peptide” value in assay [5] was 138. In addition, the “Binding of CRJA to linear peptide” value in assay [6] is 121.
Consider KSVSFRRLSHLRKLV, for which the “Binding of CRJA (10 μg/ml) to looped/cyclic peptide (PEPSCAN-ELISA)” value in assay [1] is 88. In addition, the “Binding of CR57 (10 μg/ml) to looped/cyclic peptide (PEPSCAN-ELISA)” value in assay [2] is on record as 114. Besides, the “Binding of CRJB (10 μg/ml) to looped/cyclic peptide (PEPSCAN-ELISA)” value in assay [3] is given as 97. Besides, the “Binding of CR57 to linear peptide” value in assay [4] is on record as 108. For the same sequence, the “Binding of CRJB to linear peptide” value in assay [5] was 124. In addition, in assay [6], the “Binding of CRJA to linear peptide” value is given as 111.
In the case of ADAHYKSVRTWNEIL, in assay [1], the “Binding of CRJA (10 μg/ml) to looped/cyclic peptide (PEPSCAN-ELISA)” value is 90. Besides, in assay [2], the “Binding of CR57 (10 μg/ml) to looped/cyclic peptide (PEPSCAN-ELISA)” value is given as 69. Further, the “Binding of CRJB (10 μg/ml) to looped/cyclic peptide (PEPSCAN-ELISA)” value in assay [3] worked out at 82. Moreover, the “Binding of CR57 to linear peptide” value in assay [4] turned out to be 56. The “Binding of CRJB to linear peptide” value in assay [5] was found to be 100. Besides, the “Binding of CRJA to linear peptide” value in assay [6] is recorded as 93.
With LAIKMNGFTCTGVVT, the “Binding of CRJA (10 μg/ml) to looped/cyclic peptide (PEPSCAN-ELISA signal)” value in assay [1] amounted to 79. Besides, the “Binding of CR57 (10 μg/ml) to looped/cyclic peptide (PEPSCAN-ELISA signal)” value in assay [2] is on record as 76. Also, in assay [3], the “Binding of CRJB (10 μg/ml) to looped/cyclic peptide (PEPSCAN-ELISA signal)” value is listed as 91. Besides, in assay [4], the “Binding of CR57 to linear peptide” value came to 68. The “Binding of CRJB to linear peptide” value in assay [5] was found to be 130. The “Binding of CRJA to linear peptide” value in assay [6] worked out at 112.
On to ESLVIISPSVADLDP, for which the “Binding of CRJA (10 μg/ml) to looped/cyclic peptide (PEPSCAN-ELISA signal)” value in assay [1] came out at 118. The “Binding of CR57 (10 μg/ml) to looped/cyclic peptide (PEPSCAN-ELISA signal)” value in assay [2] stood at 99. For the same sequence, in assay [3], the “Binding of CRJB (10 μg/ml) to looped/cyclic peptide (PEPSCAN-ELISA signal)” value was 65. Further, in assay [4], the “Binding of CR57 to linear peptide” value came to 88. Further, in assay [5], the “Binding of CRJB to linear peptide” value amounted to 125. Also, in assay [6], the “Binding of CRJA to linear peptide” value came to 120.
As to IFTNSRGKRASKGSE, the “Binding of CRJA (10 μg/ml) to looped/cyclic peptide (PEPSCAN-ELISA signal)” value in assay [1] is 88. The “Binding of CR57 (10 μg/ml) to looped/cyclic peptide (PEPSCAN-ELISA signal)” value in assay [2] is on record as 85. In addition, the “Binding of CRJB (10 μg/ml) to looped/cyclic peptide (PEPSCAN-ELISA signal)” value in assay [3] is recorded as 75. Besides, the “Binding of CR57 to linear peptide” value in assay [4] came to 77. For the same sequence, the “Binding of CRJB to linear peptide” value in assay [5] was 125. In assay [6], the “Binding of CRJA to linear peptide” value is 97.
Consider IISPSVADLDPYDRS, for which the “Binding of CRJA (10 μg/ml) to looped/cyclic peptide (PEPSCAN-ELISA signal)” value in assay [1] is given as 106. Besides, in assay [2], the “Binding of CR57 (10 μg/ml) to looped/cyclic peptide (PEPSCAN-ELISA signal)” value stood at 115. Besides, the “Binding of CRJB (10 μg/ml) to looped/cyclic peptide (PEPSCAN-ELISA signal)” value in assay [3] came out at 93. Further, the “Binding of CR57 to linear peptide” value in assay [4] is 83. Further, in assay [5], the “Binding of CRJB to linear peptide” value was found to be 125. For the same sequence, the “Binding of CRJA to linear peptide” value in assay [6] stood at 98.
With FGKAYTIFNKTLMEA, the “Binding of CRJA (10 μg/ml) to looped/cyclic peptide (PEPSCAN-ELISA)” value in assay [1] worked out at 96. Also, the “Binding of CR57 (10 μg/ml) to looped/cyclic peptide (PEPSCAN-ELISA)” value in assay [2] was determined as 114. The “Binding of CRJB (10 μg/ml) to looped/cyclic peptide (PEPSCAN-ELISA)” value in assay [3] is 78. The “Binding of CR57 to linear peptide” value in assay [4] amounted to 90. Moreover, in assay [5], the “Binding of CRJB to linear peptide” value worked out at 151. The “Binding of CRJA to linear peptide” value in assay [6] was 85.

Source of the values: patent US20060263802A1 (priority 2003, published 2006).
